Like-named read-outs stand apart in the source and are kept apart here.
Legend:
[1] = Microsomal Stability Assay, rat liver microsomes; assay type: in vitro ADME; conditions: for half-life at 1 μM: rat, liver microsomes, pH 7.4, 1 μM compound, 1.0 mg/mL microsome, NADPH, read-out: RLM t1/2
Description: (§1) Compounds were also tested for metabolic stability in both rat liver microsomes (RLM) and human liver microsomes (HLM) and their half-life calculated (See Table 5). The assay was performed as follows. The total volume for each incubation was 250 μL. A 100 μM DMSO solution of compound (diluted from 10 mM stock solution) was spiked into 50 mM KH2PO4 (pH 7.4) buffer containing liver microsome at a concentration of 1.0 mg/mL. The reaction was initiated by the addition of 50 μL of 1 mM NADPH. The final concentration of each compound was 1 μM (1% DMSO). The positive controls, phenacetin for CYP1A2, diclofenac for CYP2C9, omeprazole for CYP2C19, dextromethorphan for CYP2D6 and midazolam for CYP3A4 were added to a separate tube with the final substrate concentrations of 1 μM (1% DMSO) for evaluating the enzyme activities in the liver microsomes. At 0, 15, 30 and 60 min, an aliquot of 15 μL reaction mixtures were removed and 200 μL of methanol (with internal standard of 25 ng/mL propranolol) was added to quench the reaction. The resulting mixture was centrifuged and supernatant was used for LC-MS/MS analysis.
(§2) The signals for each compound, or the metabolites for the probe substrates and the internal standard were integrated and the peak area ratios to internal standard were generated. Percent parent remaining at a specified timepoint was calculated based on the peak area ratios at time 0 (as 100%) for in vitro metabolic stability studies in liver microsome and hepatocyte. The observed rate constant (kobs) for the metabolism of substrates was calculated by plotting the natural log of percentage substrate remaining versus time of incubation with the slope being kobs. The half-life (T1/2) was calculated according to the following equation: T1/2=0.693/kobs

[2] = Microsomal Stability Assay, human liver microsomes; assay type: in vitro ADME; conditions: pH 7.4, 1 μM compound, 1.0 mg/mL microsome, NADPH, read-out: HLM t1/2
Description: as §1, §2

[3] = tested on: A549 (lung); assay: Cancer Cell Proliferation Assay (acid phosphatase, 72 hrs); assay type: cell-based; conditions: Homo sapiens
Description: (§3) Measurement of the inhibitive effect of compounds on cancer cell proliferation was performed. Various cell lines were tested, including HCT-116 (colon); A549 (lung); TOV-21G (ovarian); Calu-6 (lung); H1703 (Lung); LS-174T (colon); and SKOV3 (ovarian). The assays were performed under the following conditions: Cells are harvested at a concentration of 4×10^4 cells/ml in media. Volumes of 100 μl/well of these cell suspensions were added to a 96 well plate using a multichannel pipette. Plates were gently agitated to ensure an even dispersion of cells over a given plate. Cells were then incubated at 37° C., 5% CO^2 overnight. Following this, 100 μl of compound at varying concentrations was added to wells in triplicate. Control wells are those with 100 μl media containing 0.33% DMSO added to cell suspension (this is the equivalent volume of DMSO found in the highest concentration of drug). Plates were then gently agitated, as above, and incubated at 37° C., 5% CO2 for 72 hrs (control wells have reached 80-90% confluency). Assessment of cell proliferation in the presence of the compound was determined by the acid phosphatase assay.
(§4) Following the incubation period of 72 hrs, media was removed from the plates. Each well on the plate was washed twice with 100 μl PBS. This was then removed and 100 μl of freshly prepared phosphatase substrate (10 mM p-nitrophenol phosphate in 0.1M sodium acetate, 0.1% triton X-100, pH 5.5) was added to each well. The plates were then incubated in the dark at 37° C. for 2 hours. Colour development was monitored during this time. The enzymatic reaction was stopped by the addition of 50 μl of 1N NaOH. The plate was read in a dual beam plate reader at 405 nm with a reference wavelength of 620 nm. The absorbance reading of the latter is subtracted from the former, and the effect of the drug on cell proliferation was then measured as a percentage against the control cells (DMSO), which is taken as 0% inhibition. […] FIG. 14 A-K also show the % inhibition curves of various compounds on these cancer cell lines with the 72 hrs proliferation assay.

[4] = tested on: Calu-6 (lung); assay: as above; assay type: cell-based; conditions: Homo sapiens, read-out: IC50 on cancer cell line proliferation, Calu6
Description: as §3, §4

[5] = tested on: H1703 (Lung); assay: as above; assay type: cell-based; conditions: Homo sapiens, NCI-H1703, read-out: IC50 on cancer cell line proliferation, H1703
Description: as §3, §4

[6] = tested on: HCT-116 (colon); assay: as above; assay type: cell-based; conditions: Homo sapiens, read-out: IC50 on cancer cell line proliferation, HCT-116
Description: as §3, §4

[7] = tested on: LS-174T (colon); assay: as above; assay type: cell-based; conditions: Homo sapiens, LS174T, read-out: IC50 on cancer cell line proliferation, LS-174T
Description: as §3, §4

[8] = tested on: SKOV3 (ovarian); assay: as above; assay type: cell-based; conditions: Homo sapiens, SK-OV-3, read-out: IC50 on cancer cell line proliferation, SKOV3
Description: as §3, §4

[9] = tested on: TOV-21G (ovarian); assay: as above; assay type: cell-based; conditions: Homo sapiens, TOV21G, read-out: IC50 on cancer cell line proliferation, TOV-21G
Description: as §3, §4

[10] = read-out: IC50 on cancer cell line proliferation, A549

Structure (SMILES) | half-life at 1 μM [1] | IC50 [3, 10] | IC50 [5] | IC50 [6] | IC50 [7] | IC50 [8] | IC50 [9] | further results
O=C(Nc1nc(Nc2ncnc3ccccc23)n(-c2ccccc2)n1)c1ccco1 [Z] | 45 min |  |  |  |  |  |  | 
O=C(Nc1nc(NC(=O)c2ccccc2)n(-c2ccccc2)n1)c1ccccc1 [Compound A, N,N′-(1-phenyl-1H-1,2,4-triazole-3,5-diyl)dibenzamide] | 20.6 min |  |  |  |  |  |  | half-life at 1 μM [2]: 151 min
O=C(Nc1nc(NC(=O)c2cccs2)nn1-c1ccccc1)c1ccccc1 [Compound G2] | 39 min |  |  |  |  |  |  | 
O=C(Nc1nc(NC(=O)c2cc3ccccc3s2)n(-c2ccccc2)n1)c1ccccc1 [Compound A2] | 36 min |  |  |  |  |  |  | 
Cc1ccccc1C(=O)Nc1nc(-c2ccccn2)nn1-c1ccc(OC(F)(F)F)cc1 [Compound H3] | 16 min | 823 nM | 3040 nM | 485 nM | 497 nM | 737 nM | 751 nM | IC50 [4]: 2410 nM
Cc1ccccc1C(=O)Nc1nc(NC(=O)c2ccccc2)nn1-c1ccccc1 [Compound K, N-(5-benzamido-2-phenyl-1,2,4-triazol-3-yl)-2-methyl-benzamide] |  | 2530 nM | 3460 nM | 1920 nM | 3110 nM | 3140 nM | 1350 nM | 
Cc1ccc(-c2nc(NC(=O)c3ccccc3C)n(-c3ccccc3)n2)nc1 [Compound R3, 2-methyl-N-(3-(5-methylpyridin-2-yl)-1-phenyl-1H-1,2,4-triazol-5-yl)benzamide] |  | 1980 nM | 2620 nM | 1300 nM | 1690 nM | 2710 nM | 1190 nM | IC50 [4]: 3370 nM
O=C(Nc1nc(NC(=O)c2ccccc2)n(-c2ccc3ncccc3c2)n1)c1ccccc1 [Compound J2] | 50 min |  |  |  |  |  |  | 
O=C(Nc1nc(NC(=O)c2ccco2)n(-c2ccccc2)n1)c1ccccc1 [Compound W1] | 110 min |  |  |  |  |  |  | 
O=C(Nc1nc(NC(=O)c2ccccc2)n(-c2ccc3c(c2)OCCO3)n1)c1ccccc1 [Compound E2] | 3 min |  |  |  |  |  |  | 
Cc1ccccc1C(=O)Nc1nc(NC(=O)/C=C/c2ccccc2)n(-c2ccccc2)n1 [Compound C2] | 12 min |  |  |  |  |  |  | 
O=C(Nc1nc(-c2ccccn2)nn1-c1ccccc1)c1ccccc1 [Compound Y1, N-(1-phenyl-3-(pyridin-2-yl)-1H-1,2,4-triazol-5-yl)benzamide] | < 1 min | 893 nM | 4700 nM | 351 nM | 938 nM | 1180 nM | 495 nM | IC50 [4]: 3340 nM
Cc1ccccc1C(=O)Nc1nc(NC(=O)c2cccs2)nn1-c1ccccc1 [Compound K2] | 29 min |  |  |  |  |  |  | 
Cc1ccccc1C(=O)Nc1nc(-c2ncccc2C)nn1-c1ccccc1 [Compound S3, 2-methyl-N-(3-(3-methylpyridin-2-yl)-1-phenyl-1H-1,2,4-triazol-5-yl)benzamide] |  | 878 nM | 2710 nM | 482 nM | 522 nM | 650 nM | 566 nM | IC50 [4]: 2360 nM
Cc1ccccc1C(=O)Nc1nc(NC(=O)c2ccccc2C)n(-c2ccc(Cl)cc2)n1 [Compound Q3] | 133 min | 613 nM | 1540 nM | 294 nM | 1730 nM | 2060 nM | 688 nM | IC50 [4]: 194 nM
Cc1ccccc1C(=O)Nc1nc(Nc2ncnc3ccccc23)n(-c2ccccc2)n1 [Compound R2] | 77 min |  |  |  |  |  |  | 
O=C(Nc1nc(NC(=O)c2ccccc2)n(-c2ccc(OC(F)(F)F)cc2)n1)c1ccccc1 [Compound Z1] | 19 min | 253 nM | 481 nM | 132 nM | 391 nM | 606 nM | 210 nM | IC50 [4]: 1060 nM
Cc1ccccc1C(=O)Nc1nc(NC(=O)c2ccccc2C)n(-c2ccccc2)n1 [Compound F, 2-methyl-N-[5-[(2-methylbenzoyl)amino]-1-phenyl-1,2,4-triazol-3-yl]benzamide] | 630 min | 2650 nM |  | 2280 nM | 2670 nM | 3300 nM | 2220 nM | half-life at 1 μM [2]: 578 min; In vitro RLM (min) ([1]; as repeated in the PK tables): Stable
O=C(/C=C/c1ccccc1)Nc1nc(NC(=O)c2ccccc2)nn1-c1ccccc1 [Compound C, N-(5-cinnamamido-1-phenyl-1H-1,2,4-triazol-3-yl)benzamide] | 14.1 min | 2260 nM | 2590 nM | 1670 nM | 2200 nM | 3160 nM | 1740 nM | half-life at 1 μM [2]: 77.9 min; In vitro RLM ([1]; as repeated in the PK tables): 14.1 min
O=C(Nc1nc(Nc2ncnc3ccccc23)n(-c2ccccc2)n1)c1ccccc1 [Compound L, N-[1-phenyl-5-(quinazolin-4-ylamino)-1,2,4-triazol-3-yl]benzamide] | 59.2 min |  |  | 939 nM | 1520 nM | 1230 nM | 989 nM | half-life at 1 μM [2]: 38.5 min; IC50 ([3]; A549, 72 h, heading: IC50 on cancer cell line proliferation): 1550 nM; IC50 [4]: 2270 nM
O=C(/C=C/c1ccccc1)Nc1nc(NC(=O)c2ccccc2)nn1-c1ccccn1 [Compound U1] | 10.5 min |  |  |  |  |  |  | half-life at 1 μM [2]: 6.9 min
Cc1ccccc1C(=O)Nc1nc(-c2ccccn2)nn1-c1ccccc1 [Compound Q2] | 76 min | 2160 nM | ~2530 nM | 1640 nM | 2290 nM | 2080 nM | 1600 nM | 
O=C(Nc1nc(NC(=O)c2ccc3ccccc3n2)n(-c2ccccc2)n1)c1ccccc1 [Compound B2] | 2 min |  |  |  |  |  |  | 
c1ccc(-n2nc(-c3ccccn3)nc2Nc2ncnc3ccccc23)cc1 [Compound U2] | 126 min |  |  |  |  |  |  | 

Source: patent US10308617B2, “Triazole benzamide derivatives and the compositions and methods of treatment regarding the same” (An2H Discovery Limited, priority 2016, dated 2019)
